Source: the NIST ThermoML archive (doi:10.1021/acs.jced.5b00922)

Tests used:
[1] = Liquid; for viscosity: Capillary tube (Ostwald / Ubbelohde) method; for mass density: Pycnometric method
[2] = mn = molality of the nth substance listed, in mol/kg; conditions: 100 kPa, Liquid, m1 = 4.416; for viscosity: Capillary tube (Ostwald / Ubbelohde) method; for mass density: Pycnometric method; for binary diffusion coefficient: absorption column
[3] = wn = mass fraction of the nth substance listed; conditions: 100 kPa, Liquid; for viscosity: Capillary tube (Ostwald / Ubbelohde) method; for mass density: Pycnometric method

CN(CCO)CCO [N-methyldiethanolamine]
[1], 100 kPa
Conditions	mass density [kg/m3]	viscosity [mPa·s]
298 K	1036.7	77.6
308 K	1029.4	44.33
323 K	1018.5	22.3

CN(CCO)CCO [N-methyldiethanolamine] + O
[2]
Conditions	binary diffusion coefficient [m2/s]	mass density [kg/m3]	viscosity [mPa·s]
298 K	8.2e-10	1036.91	3.851
303 K	9.5e-10	1034.27	3.22
308 K	1.09e-09	1030.94	2.7
313 K	1.24e-09	1027.61	2.215
318 K	1.37e-09	1024.05	1.89
323 K	1.54e-09	1020.68	1.62

[3]
Conditions	mass density, w1 = 0.1 [kg/m3]	mass density, w1 = 0.2 [kg/m3]	mass density, w1 = 0.3 [kg/m3]	mass density, w1 = 1 [kg/m3]	viscosity, w1 = 0.1 [mPa·s]	viscosity, w1 = 0.2 [mPa·s]	viscosity, w1 = 0.3 [mPa·s]	viscosity, w1 = 1 [mPa·s]
298 K	1005.7	1015	1024.6	1036.7	1.295	1.925	3.031	77.6
308 K	1001.9	1010.9	1020.2	1029.4	1.007	1.468	2.251	44.33
323 K	995.9	1003.4	1012	1018.5	0.748	1.033	1.491	22.3

NCCCNCCCN [bis(3-aminopropyl)amine]
[1], 101.33 kPa
Conditions	mass density [kg/m3]	viscosity [mPa·s]
298 K	927.36	8.51
303 K	923.34	7.04
308 K	919.32	5.92
313 K	915.28	5.05
318 K	911.18	4.62
323 K	906.97	3.99
